Test [1] deals with Human immunodeficiency virus type 1 protease (Human immunodeficiency virus 1) (UniProt Q72874). The test is described as follows: (§1) Inhibitory activity against HIV-1 protease. Conditions: concentration not given here.
The target of test [2] is Human immunodeficiency virus type 1 protease (Human immunodeficiency virus 1, UniProt Q72874). Described as §1.
For test [3], the target named is Human immunodeficiency virus type 1 protease (Human immunodeficiency virus 1) (UniProt Q72874). The conditions noted are these: 100 uM.
Description: Inhibitory activity against HIV-1 protease at 100 uM concentration

On to `O=C1N(Cc2ccc3ccccc3c2)[C@@H](Cc2ccccc2)C(O)[C@H](Cc2ccccc2)N1Cc1ccc2ccccc2c1`, for which the inhibition in test [1] was 6%.

For the compound `O=C1N(CC2CC2)[C@@H](Cc2ccccc2)C(O)[C@H](Cc2ccccc2)N1CC1CC1`, inhibition in test [2] was half-maximal at 9 µM (IC50).

Turning to `O=C1N[C@@H](Cc2ccccc2)C(O)[C@H](Cc2ccccc2)N1`, the IC50 in test [2] was above 100 µM. The compound further had an inhibition in test [3] of 35%.

In turn, `O=C1N(Cc2ccccc2)[C@@H](Cc2ccccc2)C(O)[C@H](Cc2ccccc2)N1Cc1ccccc1` showed an IC50 in test [2] of 89 µM.

In test [2], `C=CCN1C(=O)N(CC=C)[C@@H](Cc2ccccc2)C(O)[C@@H]1Cc1ccccc1` returned an IC50 of 53 µM.

Values taken from ChEMBL document CHEMBL1151034, “De novo design of nonpeptidic HIV-1 protease inhibitors: Incorporation of structural water” (Bioorg Med Chem Lett, 1994).
